Source: paper PMC12596218 (Journal of Lipid Research, 2025)
Where “and” joins values, the source holds several entries; their conditions need not be identical. Equal values may be shown once.

Columns and labels:
NTCP [1] = conditions: cited from earlier work
NTCP [2] = target: T1, NTCP (Homo sapiens, UniProt Q14973); test: [3H]DHEAS transport inhibition assay in NTCP-HEK293 cells; assay type: cell-based; conditions: 1 μM [3H]DHEAS, 10 min; two independent experiments; read-out: IC50 NTCP [3H]DHEAS uptake
T1 construct: stably transfected with the full open reading frames of human NTCP, ASBT, SOAT, OATP1B1, OATP1B3, OATP2B1, and murine Asbt (mAsbt); expressed in transfected cells; host or cells: HEK293 (Flp-In), stably transfected, tetracycline-induced
T1 sequence (Q14973 1-349): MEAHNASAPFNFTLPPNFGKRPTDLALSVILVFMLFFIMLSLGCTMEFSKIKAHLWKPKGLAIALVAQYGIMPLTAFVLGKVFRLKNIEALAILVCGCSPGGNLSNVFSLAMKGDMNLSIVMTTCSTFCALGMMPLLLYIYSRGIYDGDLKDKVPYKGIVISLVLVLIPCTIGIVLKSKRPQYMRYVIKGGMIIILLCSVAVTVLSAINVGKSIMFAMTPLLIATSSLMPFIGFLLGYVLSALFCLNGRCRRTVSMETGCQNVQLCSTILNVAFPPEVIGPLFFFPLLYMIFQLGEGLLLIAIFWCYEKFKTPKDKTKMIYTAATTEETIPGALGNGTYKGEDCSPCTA
Excerpt: (§1) Human embryonic kidney HEK293 cells, stably transfected with the full open reading frames of human NTCP, ASBT, SOAT, OATP1B1, OATP1B3, OATP2B1, and murine Asbt (mAsbt) were used as reported ([18], [20], [21], [22], [23]). The NTCP, ASBT, and mAsbt constructs were C-terminally tagged with the FLAG epitope, and the SOAT construct was C-terminally tagged with green fluorescent protein. Non-transfected Flp-In HEK293 cells (Thermo Fisher Scientific) served as the control. All cell lines were maintained at 37°C, 5% CO2 and 95% humidity in DMEM/F-12 medium (Thermo Fisher Scientific) supplemented with 10% fetal calf serum (Sigma-Aldrich), 4 mM L-glutamine (PAA) and penicillin/streptomycin (PAA). […]
(§2) Cells were seeded onto poly-L-lysine-coated 96-well plates, induced with 1 μg/ml tetracycline, and grown to confluence over 72 h at 37°C. […] Then, the cell-associated radioactivity of the respective tritium-labeled substrate or ligand was quantified by liquid scintillation counting using MicroScint-20 scintillation cocktail (Revvity) in a Packard Microplate Scintillation Counter TopCount NXT (Packard Instrument Company). […] Finally, all net transport data were expressed as uptake or binding as % of control. […] From the specific uptake rates, Michaelis Menten Km values were calculated by non-linear regression analysis.

NTCP [3] = target: T1, NTCP; test: [3H]preS1 peptide binding to NTCP-HEK293 cells; conditions: 5 nM [3H]preS1; two independent experiments
Excerpt: as §1, §2

NTCP [4] = target: T1, NTCP; test: [3H]rosuvastatin transport inhibition assay in NTCP-HEK293 cells; assay type: cell-based; conditions: 1 μM [3H]rosuvastatin, 10 min; two independent experiments; read-out: IC50 NTCP [3H]rosuvastatin uptake
Excerpt: as §1, §2

OATP2B1 = conditions: cited from earlier work
murine Asbt (mAsbt) = target: T2, murine Asbt (mAsbt) (Mus musculus, UniProt P70172); test: [3H]TC transport and inhibition assay in mAsbt-HEK293 cells; assay type: cell-based; conditions: for Inhibition curve/AUC of mAsbt compared to ASBT: 1 μM [3H]TC, 10 min, AUC combined from two experiments
T2 construct: stably transfected with the full open reading frames of human NTCP, ASBT, SOAT, OATP1B1, OATP1B3, OATP2B1, and murine Asbt (mAsbt); expressed in transfected cells; host or cells: HEK293 (Flp-In), stably transfected, tetracycline-induced
T2 sequence (P70172 1-348): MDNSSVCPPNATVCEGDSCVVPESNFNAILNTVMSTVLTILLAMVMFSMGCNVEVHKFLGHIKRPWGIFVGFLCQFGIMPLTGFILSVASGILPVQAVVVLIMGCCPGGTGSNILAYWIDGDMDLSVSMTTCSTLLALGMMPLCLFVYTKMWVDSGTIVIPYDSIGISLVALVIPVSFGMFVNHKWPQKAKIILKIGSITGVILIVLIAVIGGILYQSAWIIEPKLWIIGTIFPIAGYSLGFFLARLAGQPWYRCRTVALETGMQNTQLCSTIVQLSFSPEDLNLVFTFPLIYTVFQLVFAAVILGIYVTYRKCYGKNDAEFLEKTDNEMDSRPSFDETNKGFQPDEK
Excerpt: Human embryonic kidney HEK293 cells, stably transfected with the full open reading frames of human NTCP, ASBT, SOAT, OATP1B1, OATP1B3, OATP2B1, and murine Asbt (mAsbt) were used as reported ([18], [20], [21], [22], [23]). The NTCP, ASBT, and mAsbt constructs were C-terminally tagged with the FLAG epitope, and the SOAT construct was C-terminally tagged with green fluorescent protein. Non-transfected Flp-In HEK293 cells (Thermo Fisher Scientific) served as the control. All cell lines were maintained at 37°C, 5% CO2 and 95% humidity in DMEM/F-12 medium (Thermo Fisher Scientific) supplemented with 10% fetal calf serum (Sigma-Aldrich), 4 mM L-glutamine (PAA) and penicillin/streptomycin (PAA). Expression of the respective carrier protein was induced by tetracycline treatment at 1 μg/ml (Carl Roth GmbH + Co. KG).
Cells were seeded onto poly-L-lysine-coated 96-well plates, induced with 1 μg/ml tetracycline, and grown to confluence over 72 h at 37°C. Then, cells were washed with tempered (37°C) phosphate-buffered saline (PBS, containing 137.0 mM NaCl, 2.7 mM KCl, 1.5 mM KH2PO4, and 7.3 mM Na2HPO4, at pH 7.4) and preincubated with 80 μl sodium transport buffer (STB, containing 142.9 mM NaCl, 4.7 mM KCl, 1.2 mM MgSO4, 1.2 mM KH2PO4, 1.8 mM CaCl2, and 20.0 mM HEPES, at pH 7.4) for 5 min at 37°C. For inhibition studies, the medium was replaced by 80 μl STB containing the respective inhibitor or solvent alone and cells were further incubated for 5 min at 37°C. Transport experiments were started by adding 20 μl of a 5-fold concentrated substrate solution (solved in STB). For transport experiments under sodium-free conditions the same buffer composition was used as for STB, but sodium chloride was substituted with equimolar concentrations of choline chloride as previously reported ([20], [24]). Transport experiments were stopped by washing twice with ice-cold PBS and the plates were kept cool on ice until adding the lysis buffer [1% sodium dodecyl sulfate (SDS) and 1 N NaOH]. Then, the cell-associated radioactivity of the respective tritium-labeled substrate or ligand was quantified by liquid scintillation counting using MicroScint-20 scintillation cocktail (Revvity) in a Packard Microplate Scintillation Counter TopCount NXT (Packard Instrument Company). For IC50 transport inhibition measurements, the mean uptake values measured in non-carrier-expressing HEK293 control cells were defined as 0% uptake control and were subtracted from all other values. Values from cells without inhibitor and solvent alone were set to 100%. Finally, all net transport data were expressed as uptake or binding as % of control. […] From the specific uptake rates, Michaelis Menten Km values were calculated by non-linear regression analysis.

| SMILES | IC50 (NTCP [2]) | IC50 (NTCP [3]) | IC50 (NTCP [4]) | Inhibition curve/AUC of mAsbt compared to ASBT (murine Asbt (mAsbt)) | further results |
| --- | --- | --- | --- | --- | --- |
| CCCCC1(CCCC)CN(c2ccccc2)c2cc(SC)c(OCC(=O)N[C@@H](C(=O)NCC(=O)O)c3ccccc3)cc2S(=O)(=O)C1 [elobixibat] | 11.7 µM and 11.1 µM | 147 µM and 36 µM | 19.2 µM and 11.9 µM | – | IC50 (NTCP [1]; ref PMDA Goofice Report on the Deliberation Results, read-out: IC50 NTCP inhibition): 0.24 µM |
| CCCC[C@]1(CC)CS(=O)(=O)c2cc(CNC(CC(=O)O)CC(=O)O)c(OC)cc2[C@@H](c2ccccc2)N1 [linerixibat] | – | – | – | lower AUC values were determined for mAsbt compared to ASBT but without reaching the level of significance | Substrate of OATP2B1 (OATP2B1): is not a substrate; Transport inhibition at highest substrate concentration (murine Asbt (mAsbt); 500 μM [3H]TC): full transport inhibition; IC50 values at increasing substrate concentrations (in words) (murine Asbt (mAsbt); [3H]TC 0.3-500 μM): remained quite stable |
| CCCCC1(CCCC)CS(=O)(=O)c2ccc(N(C)C)cc2[C@@H](c2ccc(OCc3ccc(C[N+]45CCN(CC4)CC5)cc3)cc2)[C@H]1O [maralixibat] | – | – | – | – | OATP2B1 inhibition (in words) (OATP2B1; in vitro studies, ref EMA EPAR Product Information Maralixibat): Maralixibat is an OATP2B1 inhibitor based on in vitro studies. No potential for clinically relevant drug-drug interactions (DDI), but theoretical risk of interaction with substrates of this carrier.; IC50 (OATP2B1; in vitro, ref FDA NDA 214662 Livmarli, read-out: IC50 OATP2B1 inhibition): 1.02 µM; Inhibition of NTCP (NTCP [1]; 50 μM, NTCP expressed in CHO cells, ref FDA NDA 214662 Livmarli): Maralixibat at 50 μM produced 5% inhibition of NTCP expressed in CHO cells. |
| CCCCC1(CCCC)CN(c2ccccc2)c2cc(SC)c(OCC(=O)N[C@@H](C(=O)N[C@@H](CC)C(=O)O)c3ccc(O)cc3)cc2S(=O)(=O)N1 [odevixibat] | 8.7 µM and 5.5 µM | 144 µM and 15.9 µM | 6.6 µM and 5.4 µM | much more potent inhibitor of the human ASBT protein compared to mAsbt | – |
